The assay has as its target T1, recombinant human 11 β-HSD1 (Homo sapiens, UniProt P28845).
T1 construct: made in house; host or cells: E. coli
Description: 11 β-HSD1 SPA Assay (Scintillation Proximity Assay). Format: biochemical. Here is the method: (§1) Inhibition of 11 βHSD1 by test compounds was assessed in vitro by a Scintillation Proximity Assay (SPA). The assay was carried out in a 384-well assay plate in a total well volume of 26 μl and contained a mixture of tritiated cortisone substrate (40 nM), NADPH cofactor (1 mM), inhibitor in serial dilutions ([…] to 10 μM), and purified E. coli-expressed recombinant human 11 βHSD1 (30-100 nM) in assay buffer (50 mM HEPES, 100 mM KCl, 5 mM NaCl, and 2 mM MgCl2, pH7.4). Following mixing, the plate was incubated for 2 hours at room temperature. Reactions were stopped by addition of 30 μl of protein A YSi SPA beads (10 mg/ml) that had been pre-incubated with glycyrrhetinic acid (1 mM) and a monoclonal cortisol antibody (3 μg/ml). The plate was then incubated overnight at room temperature prior to reading on a Microbeta counter. Percent inhibition of each compound was calculated based on the background and the maximal signals. Wells that contained substrate without compound or enzyme were used as the background signal, while the wells that contained substrate and enzyme without any compound were used as the maximal signal. The calculation of the IC50 values for the inhibitors was performed by Activity Base.
as §1, with “β-HSD1” for “βHSD1”
A general note: In a scintillation proximity assay essentially only radioactivity close to the scintillant gives light.

pIC50: −log10 of the molar value. A value given as a limit tells only on which side of the number the result lay.

T1 sequence (P28845 whole entry): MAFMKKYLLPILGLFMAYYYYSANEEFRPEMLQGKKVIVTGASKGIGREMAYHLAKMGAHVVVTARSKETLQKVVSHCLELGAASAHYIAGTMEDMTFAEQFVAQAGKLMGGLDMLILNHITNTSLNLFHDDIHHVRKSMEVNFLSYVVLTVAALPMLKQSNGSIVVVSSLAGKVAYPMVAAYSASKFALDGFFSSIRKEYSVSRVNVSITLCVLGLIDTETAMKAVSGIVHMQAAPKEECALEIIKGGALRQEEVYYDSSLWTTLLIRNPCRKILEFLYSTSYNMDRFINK

As usually defined, the pIC50 is the negative decadic logarithm of the IC50, by convention in mol/L. With “2-[(2,4-dichlorophenyl)oxy]-N-{8-[5-(1-hydroxy-1-methylethyl)pyridin-2-yl]-8-azabicyclo[3.2.1]oct-3-endo-yl}-2-methylpropanamide [Example 53]”, the negative logarithm of the IC50 (pIC50) was greater than 5.70.
With `O=C(NC1CC1)c1ccc(N2[C@@H]3CC[C@H]2C[C@@H](NC(=O)C2(c4ccc(Cl)cc4)CC2)C3)nc1` [Example 1, 6-[3-endo-({[1-(4-chlorophenyl)cyclopropyl]carbonyl}amino)-8-azabicyclo[3.2.1]oct-8-yl]-N-cyclopropylpyridine-3-carboxamide] the figure was greater than 6.70.
For the compound `O=C(N[C@H]1C[C@H]2CC[C@@H](C1)N2c1ncccc1C(F)(F)F)C1(c2ccc(Cl)cc2)CC1` [Example 5], the pIC50 was greater than 5.70.
The result for `O=C(NC1CC1)c1ccc(N2C3CCC2CC(NC(=O)C2(c4ccc(Cl)cc4)CCCC2)C3)nc1` (stereo not drawn) [Example 7, 6-[3-({[1-(4-chlorophenyl)cyclopentyl]carbonyl}amino)-8-azabicyclo[3.2.1]oct-8-yl]-N-cyclopropylpyridine-3-carboxamide] reads greater than 6.70; that for `CC(C)NC(=O)c1ccc(N2[C@@H]3CC[C@H]2C[C@@H](NC(=O)C2(c4ccc(Cl)cc4)CC2)C3)nc1` [Example 12, 6-[3-endo-({[1-(4-chlorophenyl)cyclopropyl]carbonyl}amino)-8-azabicyclo[3.2.1]oct-8-yl]-N-(1-methylethyl)pyridine-3-carboxamide], greater than 6.70.
For `CC(C)(Oc1ccc(Cl)cc1)C(=O)N[C@H]1C[C@H]2CC[C@@H](C1)N2c1ccc(C(=O)NC2CC2)cn1` [Example 13, 6-[3-endo-({2-[(4-chlorophenyl)oxy]-2-methylpropanoyl}amino)-8-azabicyclo[3.2.1]oct-8-yl]-N-cyclopropylpyridine-3-carboxamide], the pIC50 is greater than 6.70.
The result for `CC(C)(Oc1cccc(Cl)c1)C(=O)N[C@H]1C[C@H]2CC[C@@H](C1)N2c1ccc(C(=O)NC2CC2)cn1` [Example 14, 6-[3-endo-({2-[(3-chlorophenyl)oxy]-2-methylpropanoyl}amino)-8-azabicyclo[3.2.1]oct-8-yl]-N-cyclopropylpyridine-3-carboxamide] reads greater than 6.70.
The result for `CC(C)(Oc1ccccc1)C(=O)N[C@H]1C[C@H]2CC[C@@H](C1)N2c1ccc(C(=O)NC2CC2)cn1` [Example 15, N-cyclopropyl-6-(3-endo-{[2-methyl-2-(phenyloxy)propanoyl]amino}-8-azabicyclo[3.2.1]oct-8-yl)pyridine-3-carboxamide] reads greater than 6.70.
The result for `O=C(NC1CC1)c1ccc(N2[C@@H]3CC[C@H]2C[C@@H](NC(=O)C2(c4cccc(Cl)c4)CC2)C3)nc1` [Example 16, 6-[3-endo-({[1-(3-chlorophenyl)cyclopropyl]carbonyl}amino)-8-azabicyclo[3.2.1]oct-8-yl]-N-cyclopropylpyridine-3-carboxamide] reads greater than 6.70; that for `O=C(NC1CC1)c1ccc(N2[C@@H]3CC[C@H]2C[C@@H](NC(=O)C2(c4ccccc4Cl)CC2)C3)nc1` [Example 17, 6-[3-endo-({[1-(2-chlorophenyl)cyclopropyl]carbonyl}amino)-8-azabicyclo[3.2.1]oct-8-yl]-N-cyclopropylpyridine-3-carboxamide], greater than 6.70.
In the case of `N#Cc1ccnc(N2[C@@H]3CC[C@H]2C[C@@H](NC(=O)C2(c4ccc(Cl)cc4)CC2)C3)c1` [Example 18, 1-(4-chlorophenyl)-N-[8-(4-cyanopyridin-2-yl)-8-azabicyclo[3.2.1]oct-3-endo-yl]cyclopropanecarboxamide], the negative logarithm of the IC50 (pIC50) was greater than 5.70.
On to `O=C(O)c1ccc(N2[C@@H]3CC[C@H]2C[C@@H](NC(=O)C2(c4ccc(Cl)cc4)CC2)C3)nc1` [Example 19, 6-[3-endo-({[1-(4-chlorophenyl)cyclopropyl]carbonyl}amino)-8-azabicyclo[3.2.1]oct-8-yl]pyridine-3-carboxylic acid], for which the pIC50 is greater than 5.70.
The result for `CC(C)(C(=O)N[C@H]1C[C@H]2CC[C@@H](C1)N2c1ccc(C(=O)NC2CC2)cn1)c1ccc(Cl)cc1` [Example 20, 6-(3-endo-{[2-(4-chlorophenyl)-2-methylpropanoyl]amino}-8-azabicyclo[3.2.1]oct-8-yl)-N-cyclopropyipyridine-3-carboxamide] reads greater than 6.70; that for `CC(C)(C(=O)N[C@H]1C[C@H]2CC[C@@H](C1)N2c1ccc(C(=O)NC2CC2)cn1)c1ccccc1` [Example 21, N-cyclopropyl-6-{3-endo-[(2-methyl-2-phenylpropanoyl)amino]-8-azabicyclo[3.2.1]oct-8-yl}pyridine-3-carboxamide], greater than 6.70.
Consider `O=C(NCC(F)(F)F)c1ccc(N2[C@@H]3CC[C@H]2C[C@@H](NC(=O)C2(c4ccc(Cl)cc4)CC2)C3)nc1` [Example 22, 6-[3-endo-({[1-(4-chlorophenyl)cyclopropyl]carbonyl}amino)-8-azabicyclo[3.2.1]oct-8-yl]-N-(2,2,2-trifluoroethyl)pyridine-3-carboxamide], for which the negative-log IC50 (pIC50) was greater than 6.70.
The result for `Cc1ccc(C2(C(=O)N[C@H]3C[C@H]4CC[C@@H](C3)N4c3ccc(C(=O)NC4CC4)cn3)CC2)cc1` [Example 23, N-cyclopropyl-6-[3-endo-({[1-(4-methylphenyl)cyclopropyl]carbonyl}amino)-8-azabicyclo[3.2.1]oct-8-yl]pyridine-3-carboxamide] reads greater than 6.70; that for `CC(C)(Oc1ccccc1Cl)C(=O)N[C@H]1C[C@H]2CC[C@@H](C1)N2c1ccc(C(=O)NC2CC2)cn1` [Example 24, 6-[3-endo-({2-[(2-chlorophenyl)oxy]-2-methylpropanoyl}amino)-8-azabicyclo[3.2.1]oct-8-yl]-N-cyclopropylpyridine-3-carboxamide], greater than 6.70.
`CC(C)(C(=O)N[C@H]1C[C@H]2CC[C@@H](C1)N2c1ccc(C(=O)NC2CC2)cn1)c1cccc(Cl)c1` [Example 25, 6-(3-endo-{[2-(3-chlorophenyl)-2-methylpropanoyl]amino}-8-azabicyclo[3.2.1]oct-8-yl)-N-cyclopropylpyridine-3-carboxamide]: the pIC50 was greater than 6.70.
Consider `CC(C)(C(=O)N[C@H]1C[C@H]2CC[C@@H](C1)N2c1ccc(C(=O)NCC(F)(F)F)cn1)c1ccc(Cl)cc1` [Example 26, 6-(3-endo-{[2-(4-chlorophenyl)-2-methylpropanoyl]amino}-8-azabicyclo[3.2.1]oct-8-yl)-N-(2,2,2-trifluoroethyl)pyridine-3-carboxamide], for which the pIC50 was greater than 6.70.
With `CC(C)(Oc1ccc(Cl)cc1)C(=O)N[C@H]1C[C@H]2CC[C@@H](C1)N2c1ccc(C(=O)NCC(F)(F)F)cn1` [Example 27, 6-[3-endo-({2-[(4-chlorophenyl)oxy]-2-methylpropanoyl}amino)-8-azabicyclo[3.2.1]oct-8-yl]-N-(2,2,2-trifluoroethyl)pyridine-3-carboxamide] the figure was greater than 6.70; with `O=C(NC1CC1)c1ccc(N2[C@@H]3CC[C@H]2C[C@@H](NC(=O)C2(c4ccc(F)c(F)c4)CC2)C3)nc1` [Example 28, N-cyclopropyl-6-[3-endo-({[1-(3,4-difluorophenyl)cyclopropyl]carbonyl}amino)-8-azabicyclo[3.2.1]oct-8-yl]pyridine-3-carboxamide], greater than 6.70.

Values taken from patent publication US8163771B2, “11 β-HSD1 modulators” (Exelixis, Inc., priority 2008, dated 2012).
